From patent US11220503B2, “Phthalazine derivatives, preparation method, pharmaceutical composition and usage thereof” (Shanghai SIMR Biotech Co., Ltd., priority 2015, dated 2022)
Where two headings read alike, the source gives them in different places.

Target: T1, α5β3γ2 receptor (Homo sapiens, UniProt P18507+P31644)
T1 construct: expressed in transfected cells; host or cells: HEK-293 (stably transfected)
Assay: Cell level screening: whole cell patch clamp, inverse agonist efficacy
Assay type: cell-based
Settings: for inhibition at 0.001 µM: Con. 1 nM; for inhibition at 0.01 µM: Con. 10 nM; for inhibition at 0.05 µM: Con. 50 nM; for inhibition at 1 µM: Con. 1000 nM; for inverse agonism efficacy of the compound/α5IA inverse agonism efficacy: ratio to α5IA, compound 100 nM
Procedure: The inventors used electrophysiological methods to assay the inverse agonist efficacy of the substance to be tested. The detailed procedures are as follows: (1) Different subunits of GABAA receptors were expressed in human embryonic kidney cells 293 (HEK293). The cells were cultured in a culture medium and used as a cell model for screening potential analgesics. The α, β and γ subunits are necessary to form complete functional GABAA receptors. In this example, the inventor has established the following cell model: (a) α5 subunit (protein sequence is GenBank accession number: NP_001158509), β3 subunit (protein sequence is GenBank accession number: NP_068712) and γ2 subunit (protein sequence is GenBank accession number: NP_944494) were expressed in HEK-293 cell lines at the same time, which formed the complete functional GABAA receptors. (2) Cells were stably transfected HEK-293 cells expressing α5β3γ2 receptor, which were labeled by green fluorescent protein (GFP). Cells were grown in 10 cm dishes. The cells were passaged after reaching 80-90% confluence. During passaging, the culture medium was removed and discarded, 3 mL DMEM medium (Gibco™) was added to the dishes, the dishes were shaken slightly, and DMEM was removed and discarded. 3 mL Trypsin (Trypsin-EDTA 0.05%, Gibco™) was added and cells were digested at 37° C. for 3 minutes. Then 3 mL complete growth medium (DMEM+10% horse serum (Gibco™)) was added and the cells at the bottom of the culture dishes were dispersed. The cell suspension were transferred to a 15 mL centrifugal tube (Corning®) and then centrifuged at 200 g for 3 minutes. The supernatant was discarded, 4 mL complete growth medium was added, and the cells were resuspended by gently blowing. The cell suspension was diluted by 1:5 or 1:10 for subculturing. The cell suspension was diluted by 1:12 for electrophysiology experiment, which are added to the 24 well plate (Corning®) which has a glass slide pre-treated with poly-D-lysine. The cells were adhered to the slide before the experiment was conducted. The cells were maintained in culture for no more than 24 hours before use. (3) Compound concentration: for screening, all compounds were diluted to a final concentration of 100 nM. GABA was diluted at the concentration of 0.05-0.1 μM. The compounds were at the concentration of 1 nM, 10 nM, 50 nM, 100 nM and 1000 nM in dose-inverse agonism efficacy (%) experiment. The whole cell patch clamp technique was used in electrophysiology experiments. The extracellular solution (ECS) contained: 150 mM NaCl, 5 mM KCl, 2.5 mM CaCl2, 1 mM MgCl2, 10 mM HEPES and 10 mM glucose (pH 7.4); Patch electrodes were filled with an intracellular solution containing: 140 mM KCl, 5 mM EGTA, 10 mM HEPES (adjusted to pH 7.4 with KOH and to 320-330 mOsm with water). The currents were recorded by an EPC-10 amplifier and the PatchMaster software (HEKA). Patch electrodes with a resistance of 5-6 MΩ were pulled from borosilicate glass (Sutter). The diluted compounds were perfused by OCTAFLOWII system. GFP positive and independently growing cells were selected for recording. During recording, the membrane voltage was clamped at −60 mV. During experiment, the cells were firstly perfused with ECS for 20 seconds. When the baseline reached to a stable state, cells were then perfused with GABA solution. Then the current induced by GABA can be detected. After about 20-40 seconds, the current was stable. ECS was switched to compounds solution and the effects of the compounds were detected. At last, the perfusion solution was switched to ECS. The experiment was finished when the post-baseline returned to the pre-baseline before compounds perfusion. Only the data whose pre-baseline and post-baseline are at almost the same level were used for analysis. GABA was diluted at the concentration of 0.05-0.1 μM in ECS. Then, compounds were diluted at the desired concentration in GABA ECS. (4) Currents were analyzed with the PatchMaster (HEKA) software. […]

[1] = HEK293, compound 100 nM, GABA 0.05-0.1 μM, HEK293 α5β3γ2, clamped at −60 mV, (Ipost-Ipre)*100/Ipre, read-out: inverse agonism efficacy(%)
[2] = dose-efficacy, single replicates, read-out: Inverse agonism-Efficacy
[3] = dose-efficacy, Con. 100 nM, single replicates, read-out: Inverse agonism-Efficacy

T1 sequence (P31644 32-462): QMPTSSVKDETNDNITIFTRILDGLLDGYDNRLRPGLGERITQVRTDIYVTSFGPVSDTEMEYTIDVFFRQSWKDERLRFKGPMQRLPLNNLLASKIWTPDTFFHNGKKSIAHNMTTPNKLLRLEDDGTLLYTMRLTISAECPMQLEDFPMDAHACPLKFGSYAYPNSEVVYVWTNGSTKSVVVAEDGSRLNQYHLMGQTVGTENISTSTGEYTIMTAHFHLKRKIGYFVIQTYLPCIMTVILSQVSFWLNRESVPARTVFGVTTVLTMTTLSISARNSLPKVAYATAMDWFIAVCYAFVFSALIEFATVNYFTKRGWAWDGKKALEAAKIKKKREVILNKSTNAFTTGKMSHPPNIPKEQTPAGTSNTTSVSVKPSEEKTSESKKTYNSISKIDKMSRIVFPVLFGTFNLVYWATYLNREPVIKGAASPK
T1 sequence (P28472 26-473 isoform P28472-2 partner limits assumed): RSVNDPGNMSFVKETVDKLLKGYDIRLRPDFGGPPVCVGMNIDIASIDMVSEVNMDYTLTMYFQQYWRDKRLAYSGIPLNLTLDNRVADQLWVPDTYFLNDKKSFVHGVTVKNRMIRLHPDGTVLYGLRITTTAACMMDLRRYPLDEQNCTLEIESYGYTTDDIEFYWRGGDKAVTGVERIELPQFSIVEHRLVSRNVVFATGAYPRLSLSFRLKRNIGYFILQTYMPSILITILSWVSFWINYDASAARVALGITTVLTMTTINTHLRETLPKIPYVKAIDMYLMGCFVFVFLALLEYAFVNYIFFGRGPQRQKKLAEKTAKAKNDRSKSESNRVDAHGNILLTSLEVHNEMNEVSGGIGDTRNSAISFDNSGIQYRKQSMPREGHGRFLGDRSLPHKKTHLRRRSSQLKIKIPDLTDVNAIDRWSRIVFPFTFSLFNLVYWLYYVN
T1 sequence (P18507 40-475): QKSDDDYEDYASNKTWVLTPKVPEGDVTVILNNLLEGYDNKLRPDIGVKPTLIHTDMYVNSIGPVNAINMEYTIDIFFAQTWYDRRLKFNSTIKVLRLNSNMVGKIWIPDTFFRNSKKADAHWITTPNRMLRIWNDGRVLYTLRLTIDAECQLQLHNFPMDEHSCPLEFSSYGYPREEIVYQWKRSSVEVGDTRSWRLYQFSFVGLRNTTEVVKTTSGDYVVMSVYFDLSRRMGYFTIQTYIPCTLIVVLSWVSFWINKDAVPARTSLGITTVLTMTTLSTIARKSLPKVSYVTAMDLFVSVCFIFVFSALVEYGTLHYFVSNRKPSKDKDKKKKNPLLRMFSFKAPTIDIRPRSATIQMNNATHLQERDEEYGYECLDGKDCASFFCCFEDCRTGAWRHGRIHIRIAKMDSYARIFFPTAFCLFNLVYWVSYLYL

| inhibition at 0.1 µM [1] [%] | inhibition at 0.001 µM [2] [%] | inhibition at 0.01 µM [2] [%] | inhibition at 0.05 µM [2] [%] | inhibition at 0.1 µM [3] [%] | inhibition at 1 µM [2] [%] | inverse agonism efficacy of the compound/α5IA inverse agonism efficacy | Compound |
| --- | --- | --- | --- | --- | --- | --- | --- |
| 36 | 10 | 17 | 23.1 | 26 | 32.3 | 1.596 | Cc1cc(-c2nnc3c4ccccc4c(OCc4ccc(C(=O)N(C)C)cn4)nn23)no1 [Compound 06, N,N-dimethyl-6-(((3-(5-methylisoxazol-3-yl)-[1,2,4]triazolo[3,4-a]phthalazin-6-yl)oxy)methyl)nicotinamide] |
| 47.8 | – | – | – | – | – | 2.1179 | Cc1nc(-c2nnc3c4ccccc4c(OCc4ccc(C(=O)N[C@H](C)CO)cc4C#N)nn23)no1 [Compound 31, (R)-3-cyano-N-(1-hydroxypropan-2-yl)-4-(((3-(5-methyl-1,2,4-oxadiazol-3-yl)-[1,2,4]triazolo[3,4-a]phthalazin-6-yl)oxy)methyl)benzamide] |
| 39.2 | – | – | – | – | – | 1.739 | Cc1cc(-c2nnc3c4ccccc4c(OCc4ccc(C(=O)N[C@H](C)CO)cc4Br)nn23)no1 [Compound 32, (R)-3-bromo-N-(1-hydroxypropan-2-yl)-4-(((3-(5-methylisoxazol-3-yl)-[1,2,4]triazolo[3,4-a]phthalazin-6-yl)oxy)methyl)benzamide] |
| 33 | – | – | – | – | – | 1.463 | O=C(NN1CCOCC1)c1ccc(COc2nn3c(-c4cc(CO)on4)nnc3c3ccccc23)nc1 [Compound 33, 6-(((3-(5-(hydroxymethyl)isoxazol-3-yl)-[1,2,4]triazolo[3,4-a]phthalazin-6-yl)oxy)methyl)-N-morpholinonicotinamide] |
| 32 | – | – | – | – | – | 1.419 | Cn1cc(NC(=O)c2ccc(COc3nn4c(-c5cc(CO)on5)nnc4c4ccccc34)nc2)cn1 [Compound 37, 6-(((3-(5-(hydroxymethyl)isoxazol-3-yl)-[1,2,4]triazolo[3,4-a]phthalazin-6-yl)oxy)methyl)-N-(1-methyl-1H-pyrazol-4-yl)nicotinamide] |
| 42.1 | – | – | – | – | – | 1.867 | O=C(c1ccc(COc2nn3c(-c4cc(CO)on4)nnc3c3ccccc23)nc1)N1CCOCC1 [Compound 41, (6-(((3-(5-(hydroxymethyl)isoxazol-3-yl)-[1,2,4]triazolo[3,4-a]phthalazin-6-yl)oxy)methyl)pyridin-3-yl)(morpholino)methanone] |
| 30.2 | – | – | – | – | – | 1.339 | CN(C)C(=O)c1ccc(COc2nn3c(-c4cc(CO)on4)nnc3c3ccccc23)nc1 [Compound 45, 6-(((3-(5-(hydroxymethyl)isoxazol-3-yl)-[1,2,4]triazolo[3,4-a]phthalazin-6-yl)oxy)methyl)-N,N-dimethylnicotinamide] |
| 30.5 | – | – | – | – | – | 1.351 | NNC(=O)c1ccc(COc2nn3c(-c4cc(CO)on4)nnc3c3ccccc23)nc1 [Compound 51, 6-(((3-(5-(hydroxymethyl)isoxazol-3-yl)-[1,2,4]triazolo[3,4-a]phthalazin-6-yl)oxy)methyl)nicotinohydrazide] |
| 34 | – | – | – | – | – | 1.508 | O=C(NN1CCS(=O)(=O)CC1)c1ccc(COc2nn3c(-c4cc(CO)on4)nnc3c3ccccc23)nc1 [Compound 54, N-(1,1-dioxidothiomorpholino)-6-(((3-(5-(hydroxymethyl)isoxazol-3-yl)-[1,2,4]triazolo[3,4-a]phthalazin-6-yl)oxy)methyl)nicotinamide] |
| 39 | – | – | – | – | – | 1.73 | C[C@H](CO)NC(=O)c1ccc(COc2nn3c(-c4ccoc4)nnc3c3ccccc23)nc1 [Compound 59, (R)-6-(((3-(furan-3-yl)-[1,2,4]triazolo[3,4-a]phthalazin-6-yl)oxy)methyl)-N-(1-hydroxypropan-2-yl)nicotinamide] |
| 32.6 | – | – | – | – | – | 1.447 | C[C@H](CO)NC(=O)c1ccc(COc2nn3c(-c4ccsc4)nnc3c3ccccc23)nc1 [Compound 60, (R)—N-(1-hydroxypropan-2-yl)-6-(((3-(thiophen-3-yl)-[1,2,4]triazolo[3,4-a]phthalazin-6-yl)oxy)methyl)nicotinamide] |
| 46.2 | – | – | – | – | – | 2.047 | Cc1nc(COc2nn3c(-c4cc(CO)on4)nnc3c3ccccc23)ccc1C(=O)N[C@H](C)CO [Compound 61, (R)-6-(((3-(5-(hydroxymethyl)isoxazol-3-yl)-[1,2,4]triazolo[3,4-a]phthalazin-6-yl)oxy)methyl)-N-(1-hydroxypropan-2-yl)-2-methylnicotinamide] |
| 22.6 | 4.2 | 9.4 | 22.1 | 19 | 20.7 | – | Cc1cc(-c2nnc3c4ccccc4c(OCc4cn(C)nn4)nn23)no1 [α5IA, reference compound] |
